Experimental data published in US20220351806A1, “Biomarker Panels for Guiding Dysregulated Host Response Therapy” (Endpoint Health Inc., priority 2019, published 2022).

System: sepsis patients
Assay: VANISH trial survival analysis, hydrocortisone vs placebo, by patient subtype classifier
Format: in vivo, human
Set-up: mortality reduction in the placebo group in comparison to the hydrocortisone group / Mortality rate: concentration or dose not given beside the values
Conditions: for Alive / Dead / Mortality rate / Survival rate / Mortality Reduction Group: VANISH trial; for Alive / Dead / Mortality rate / Survival rate: Hydro group; for 28-day mortality reduction in the placebo group in comparison to the hydrocortisone group: VANISH; for Mortality Reduction Group: arm with lower mortality, Hydro vs Placebo
Excerpt: The test expression data from each trial were normalized by the platform normalization matrix described above^13 so that the test data were more consistent with the training data. The classifiers (e.g., the Full Model, the SS Model, the S Model, and the P Model) were then applied to the normalized data such that the patients were classified into A, B, and C subtypes. […] Therefore, each sample in the target samples was normalized independently with the normalization matrix of the sample array platform.
Survival and mortality rates were calculated at day 28 because survival and mortality labels at other time points were not available. […] Binomial and Chi-squared with continuity correction tests were used to test for the significance of these differences.
In one example, previously identified subtypes of sepsis patients were used to tune the model to identify these type A and B patients. Two distinct sepsis response signatures (SRS1 and SRS2) were identified in five public studies (E-MTAB-4421, E-MTAB-4451, E-MTAB-5273, E-MTAB-5274, and E-MTAB-7581), where HumanHT-12 v4 BeadChip were used to generate the gene expression profiles of the patient samples. The processed data of those five studies were downloaded and processed using R programming language and software environment for statistical analysis (version 3.6.3). The Bioconductor annotation package, illuminaHumanv4.db (version 1.26.0), was used to annotate microarray probes and expression levels of genes were determined by each individual probe or mean of probes belonging to the same gene. In order to remove cohort biases, the Bioconductor package, limma (version 3.42.2), was used to remove batch effects. Using ss.b2 panel genes, subtype A, B, and C scores were calculated by geometric mean of up/down genes.
To build the classifier, we defined E-MTAB-4421, E-MTAB-4451, E-MTAB-5273, and E-MTAB-5274 as the training dataset and VANISH (E-MTAB-7581) as the testing dataset. We used features (subtype A, B, and C scores) and class labels (SRS1 vs SRS2) in the training dataset to build a machine-learned classifier based on support-vector machine (SVM) method. SVM is a supervised machine learning method for classification analysis. The algorithm finds a single or a set of hyperplanes that maximize the margin among subtype A, B, and C scores. In order to capture non-linear data, the kernel function was used. R package e1071 was used to build the SVM classifier with following parameters: method=“C-classification”, kernal=“radial”, gamma=0.1, and cost=10.
The accuracy of the classifiers was evaluated by Leave-One-Out (LOO) cross-validation over the training dataset. Also the classifier was applied to 117 controlled samples from VANISH trial.
In addition to the SVM-method, thresholds can be employed to scores in order to define A vs. B labels. […] Therefore we applied a heuristic threshold (threshold=0) to subtype A and B scores to classify SRS1-like and SRS2-like in VANISH: SRS2-like label was assigned to samples with subtype A score >0 and subtype B score <0 and SRS1-like label was assigned to the rest of samples.
Besides the heuristic threshold, we also derived the thresholds for subtype A and B scores using the training dataset. Same as the SVM method, we defined E-MTAB-4421, E-MTAB-4451, E-MTAB-5273, and E-MTAB-5274 as the training dataset and VANISH (E-MTAB-7581) as the testing dataset.

[1] = day 28, Full Model, subtypes CA
[2] = day 28, SS.B2 Model (SVM), Total
[3] = day 28, SS.B2 Model (SVM), type A (SRS2-like)
[4] = day 28, SS.B2 Model (SVM), type B (SRS1-like)

`C[C@]12CCC(=O)C=C1CC[C@@H]1[C@@H]2[C@@H](O)C[C@@]2(C)[C@H]1CC[C@]2(O)C(=O)CO` [Hydro, hydrocortisone] showed an Alive (day 28, Full Model, subtype C) of 11, a Dead (day 28, Full Model, subtype C) of 8 and a Mortality rate (day 28, Full Model, subtype C) of 42.1%. The Survival rate (day 28, Full Model, subtype C) was 57.9%, the Alive [1] was 20 and the Dead [1] was 16. For the same molecule, the Mortality rate [1] was 44.4%, the Survival rate [1] was 55.6% and the Alive (day 28, P Model, Total) was 36. The Dead (day 28, P Model, Total) was 22, the Mortality rate (day 28, P Model, Total) was 37.9% and the Survival rate (day 28, P Model, Total) was 62.1%. It also gave an Alive (day 28, P Model, subtype A) of 9, a Dead (day 28, P Model, subtype A) of 10 and a Mortality rate (day 28, P Model, subtype A) of 52.6%. The Survival rate (day 28, P Model, subtype A) was 47.4%, the Alive (day 28, P Model, subtype B) was 23 and the Dead (day 28, P Model, subtype B) was 8. The Mortality rate (day 28, P Model, subtype B) was 25.8%, the Survival rate (day 28, P Model, subtype B) was 74.2% and the Alive (day 28, P Model, subtype C) was 4. It also gave a Dead (day 28, P Model, subtype C) of 4, a Mortality rate (day 28, P Model, subtype C) of 50.0% and a Survival rate (day 28, P Model, subtype C) of 50.0%. The Alive (day 28, P Model, subtypes CA) was 13, the Dead (day 28, P Model, subtypes CA) was 14 and the Mortality rate (day 28, P Model, subtypes CA) was 51.9%. It also gave a Survival rate (day 28, P Model, subtypes CA) of 48.1%, an Alive (day 28, S Model, Total) of 20 and a Dead (day 28, S Model, Total) of 13. It also gave a Mortality rate (day 28, S Model, Total) of 39.4%, a Survival rate (day 28, S Model, Total) of 60.6% and an Alive (day 28, S Model, subtype A) of 16. The Dead (day 28, S Model, subtype A) was 9, the Mortality rate (day 28, S Model, subtype A) was 36.0% and the Survival rate (day 28, S Model, subtype A) was 64.0%. For the same molecule, the Alive (day 28, S Model, subtype B) was 12, the Dead (day 28, S Model, subtype B) was 9 and the Mortality rate (day 28, S Model, subtype B) was 42.9%. The Survival rate (day 28, S Model, subtype B) was 57.1%, the Alive (day 28, S Model, subtype C) was 8 and the Dead (day 28, S Model, subtype C) was 4. It also gave a Survival rate (day 28, S Model, subtype C) of 66.7%, an Alive (day 28, S Model, subtypes CA) of 8 and a Dead (day 28, S Model, subtypes CA) of 4. The Survival rate (day 28, S Model, subtypes CA) was 66.7%, the Alive (day 28, SS Model, Total) was 36 and the Dead (day 28, SS Model, Total) was 22. It also gave a Mortality rate (day 28, SS Model, Total) of 37.9%, a Survival rate (day 28, SS Model, Total) of 62.1% and an Alive (day 28, SS Model, subtype A) of 15. It also gave a Dead (day 28, SS Model, subtype A) of 9, a Mortality rate (day 28, SS Model, subtype A) of 37.5% and a Survival rate (day 28, SS Model, subtype A) of 62.5%. It also gave an Alive (day 28, SS Model, subtype B) of 5, a Dead (day 28, SS Model, subtype B) of 5 and a Mortality rate (day 28, SS Model, subtype B) of 50.0%. It also gave a Survival rate (day 28, SS Model, subtype B) of 50.0%, an Alive (day 28, SS Model, subtype C) of 16 and a Dead (day 28, SS Model, subtype C) of 8. For the same molecule, the Survival rate (day 28, SS Model, subtype C) was 66.7%, the Alive (day 28, SS Model, subtypes CA) was 31 and the Dead (day 28, SS Model, subtypes CA) was 17. For the same molecule, the Survival rate (day 28, SS Model, subtypes CA) was 64.6%, the Alive [2] was 36 and the Dead [2] was 22. The Mortality rate [2] was 37.9%, the Survival rate [2] was 62.1% and the Alive [3] was 22. The Dead [3] was 14, the Mortality rate [3] was 38.9% and the Survival rate [3] was 61.1%. It also gave an Alive [4] of 14, a Dead [4] of 8 and a Mortality rate [4] of 36.4%. For the same molecule, the Survival rate [4] was 63.6%, the “28-day mortality reduction in the placebo group in comparison to the hydrocortisone group” value (SRS2-like patients by ROC-derived thresholds (A threshold=-0.2664, B threshold=0.3179)) was 81.7% and the “28-day mortality reduction in the placebo group in comparison to the hydrocortisone group” value (SRS2-like patients by heuristic threshold=0 (A score >0, B score <0)) was 85.2%. The “Mortality Reduction Group” value (day 28, Full Model, Total) was “Placebo”, the “Mortality Reduction Group” value (day 28, Full Model, subtype A) was “Placebo” and the “Mortality Reduction Group” value (day 28, Full Model, subtype B) was “Hydro”. The “Mortality Reduction Group” value (day 28, Full Model, subtype C) was “Placebo”, the “Mortality Reduction Group” value [1] was “Placebo” and the “Mortality Reduction Group” value (day 28, P Model, Total) was “Placebo”. The “Mortality Reduction Group” value (day 28, P Model, subtype A) was “Placebo”, the “Mortality Reduction Group” value (day 28, P Model, subtype B) was “Hydro” and the “Mortality Reduction Group” value (day 28, P Model, subtype C) was “Placebo”. For the same molecule, the “Mortality Reduction Group” value (day 28, P Model, subtypes CA) was “Placebo”, the “Mortality Reduction Group” value (day 28, SS Model, Total) was “Placebo” and the “Mortality Reduction Group” value (day 28, SS Model, subtype A) was “Placebo”. For the same molecule, the “Mortality Reduction Group” value (day 28, SS Model, subtype B) was “Placebo”, the “Mortality Reduction Group” value (day 28, SS Model, subtype C) was “Placebo” and the “Mortality Reduction Group” value (day 28, SS Model, subtypes CA) was “Placebo”. For the same molecule, the “Mortality Reduction Group” value [2] was “Placebo”, the “Mortality Reduction Group” value [3] was “Placebo” and the “Mortality Reduction Group” value [4] was “Hydro”. The “lower mortality in the placebo group when compared to the hydrocortisone therapy group” value (sepsis patients, 28-day, subtype A, Full Model) was 64.6%, the “lower mortality in the placebo group when compared to the hydrocortisone therapy group” value (sepsis patients, 28-day, subtype A, P Model) was 77.6% and the “lower mortality in the placebo group when compared to the hydrocortisone therapy group” value (sepsis patients, 28-day, subtype A, S Model) was 86.1%. The “lower mortality in the placebo group when compared to the hydrocortisone therapy group” value (sepsis patients, 28-day, subtype A, SS Model) was 86.0%, the “lower mortality in the hydrocortisone group when compared to the placebo group” value (sepsis patients, 28-day, subtype B, Full Model) was 35.2% and the “lower mortality in the placebo group when compared to the hydrocortisone therapy group” value (sepsis patients, 28-day, subtype C, Full Model) was 56.8%.
